Earlier results in patent US20180368457A1 (Petiva Private Limited, priority 2015, published 2018).

What was measured:
[1] = in vivo
[2] = storage temperature 25° C., relative humidity approximately 85%
[3] = intravenously administered, within 6 hours of treatment

| SMILES | solubility | glycemic index, in words [1] | water pick-up on storage [2] | excreted in the urine [3] |
| --- | --- | --- | --- | --- |
| OC[C@H]1O[C@](O)(CO[C@H]2O[C@H](CO)[C@@H](O)[C@H](O)[C@H]2O)[C@@H](O)[C@@H]1O [trehalulose, 1-O-α-D-glucopyranosyl-β-D-fructofuranose] | more soluble in water than its structural isomers sucrose | less glycemic |  |  |
| OCC1O[C@H](OC[C@H]2O[C@](O)(CO)C(O)C2O)C(O)C(O)[C@@H]1O (stereo partly shown) [isomaltulose, Isomaltulose] |  | very low GI | No significant water pick-up |  |
| O=C(CO)[C@H](O)[C@H](O)[C@H](O)CO [allulose, D-Psicose] | high solubility | low glycemic index |  | approximately 98% |
